This passage reports EC50 results from patent US8450522B2, “Conformationally constrained carboxylic acid derivatives useful for treating metabolic disorders” (Amgen Inc., priority 2008, dated 2013).

A word on the EC50: it is the concentration at which the effect is half-maximal.

In assay [1] the target is T1, GPR40 (Homo sapiens, UniProt O14842). In words: Cell-based aequorin assay (CHO cells stably transfected with GPR40 and aequorin). As to conditions: activation of human GPR40, CHO cells, 0.01% HSA. Details: expressed in transfected cells. On the procedure: Briefly, the Aequorin assays were performed on doubly stable CHO cells expressing GPR40 and Aequorin DNA. […] The luminescence was recorded over a period of 20 seconds with a Microlumat luminometer (Berthold).
Cell-based aequorin assays were employed to characterize the modulatory activity of compounds on the GPR40 signaling pathway. In an exemplary assay, CHO cells were stably transfected with both GPR40 and Aequorin (Euroscreen). Cells were detached from the tissue culture dish with 2 mL of trypsin (0.25% (w/v)). Trypsinization was halted with 28 mL of Hanks Buffered Salt Solution containing 20 mM Hepes (H/HBSS) and 0.01% fatty acid-free human serum albumin (HSA). Coelantrazine is added to 1 ug/mL, and the cells were incubated for 2 hours at room temperature. Compounds were dissolved in DMSO for preparation of 10 mM stock solutions. Compounds were diluted in H/HBSS containing 0.01% HSA. Serial dilutions of the test compounds were prepared to determine dose response.
Aequorin luminescence measurements were made using an EG&G Berthold 96-well luminometer, and the response was measured over a 20 second interval after cells and compounds were mixed. The maximum relative light units was plotted to determine dose response. The EC50 (effective concentration to reach 50% maximal response) was determined from the dose response plot.

Assay [2] deals with T1, GPR40. The experiment in a line: Inositol phosphate accumulation assay (A9 cell line stably transfected with GPR40). More on the design: expressed in transfected cells. It counts as cell-based. The settings on record: human GPR40, A9_GPR40 cells, 1 hour at 37° C.; read-out: IP3 EC50 (inositol phosphate assay data). Here is the method:
An A9 cell line stably transfected with GPR40 (A9_GPR40) was used in IP accumulation assays. A9_GPR40 cells were plated in 96-well plates containing 20,000 cells/well in DMEM containing 10% FBS. After the cells attached to the well surface, the media was replaced with inositol free DMEM containing 10% dialyzed FBS and 1 μCi, mL ^3H-inositol and incubated for 16 hours. Compounds were diluted in HBSS/10 mM LiCl containing a desired amount of HSA and added directly to cells. Following 1 hour incubation at 37° C., the media was replaced with 100 μl of 20 mM formic acid to quench the reaction. 50 μL of the extract was then added to 100 μL of SPA beads, incubated overnight, and measured on a TopCount the following day.

T1 sequence (O14842 whole entry): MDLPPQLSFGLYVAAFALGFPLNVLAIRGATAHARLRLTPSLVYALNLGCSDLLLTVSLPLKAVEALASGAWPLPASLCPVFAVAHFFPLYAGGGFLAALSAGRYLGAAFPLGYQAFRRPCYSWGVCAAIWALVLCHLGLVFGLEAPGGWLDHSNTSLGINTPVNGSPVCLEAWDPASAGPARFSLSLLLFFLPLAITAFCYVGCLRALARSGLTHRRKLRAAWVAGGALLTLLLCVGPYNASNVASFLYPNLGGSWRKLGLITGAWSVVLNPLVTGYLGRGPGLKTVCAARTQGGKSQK

For the compound `COc1ccc(F)c(-c2ccc(COc3ccc4c(c3)[C@@H](CC(=O)O)CCC4)cc2C(C)(C)C)c1` (single isomer, unassigned) [Example 6, (R)-2-(7-(3-t-Butyl-4-(2-fluoro-5-methoxyphenyl)benzyloxy)1,2,3,4-tetrahydronaphthalen-1-yl)acetic acid or (S)-2-(7-(3-t-butyl-4-(2-fluoro-5-methoxyphenyl)benzyloxy)1,2,3,4-tetrahydronaphthalen-1-yl)acetic acid], the EC50 in assay [1] and in assay [2] was 100 to 1000 nM in each case.
On to `COc1ccc(F)c(-c2ccc(COc3ccc4c(c3)[C@@H](C(C)C(=O)O)CC4)cc2C(C)(C)C)c1` (single isomer, unassigned) [Example 7, (S)-2-(6-(3-t-Butyl-4-(2-fluoro-5-methoxyphenyl)benzyloxy)-2,3-dihydro-1H-inden-1-yl)propanoic acid or (R)-2-(6-(3-t-butyl-4-(2-fluoro-5-methoxyphenyl)benzyloxy)-2,3-dihydro-1H-inden-1-yl)propanoic acid], for which the EC50 in assay [1] and in assay [2] was 100 to 1000 nM each time.
For `CCCCOc1cc(COc2ccc3c(c2)[C@@H](CC(=O)O)CC3)ccc1-c1cc(OC)ccc1F` (single isomer, unassigned) [Example 17, ((1R)-6-(((2-(butyloxy)-2′-fluoro-5′-(methyloxy)-1,1′-biphenyl-4-yl)methyl)oxy)-2,3-dihydro-1H-inden-1-yl)acetic acid or ((1S)-6-(((2-(butyloxy)-2′-fluoro-5′-(methyloxy)-1,1′-biphenyl-4-yl)methyl)oxy)-2,3-dihydro-1H-inden-1-yl)acetic acid], the EC50 in assay [1] lay in the range of 100 to 1000 nM; in assay [2], 1000 to 10000 nM.
As for `COc1ccc(F)c(-c2ccc(COc3ccc4c(c3)[C@](C)(CC(=O)O)CC4)cc2[C@H]2CCCC2(C)C)c1` (single isomer, unassigned) [Example 18, {(S)-6-[2-((S)-2,2-Dimethyl-cyclopentyl)-2′-fluoro-5′-methoxy-biphenyl-4-ylmethoxy]-1-methyl-indan-1-yl}-acetic acid or diastereomer thereof], the results for the 50% effective concentration (EC50) in assay [1] and in assay [2] were 100 to 1000 nM and 10 to 100 nM, respectively.
In the same order, the values of `COc1ccc(F)c(-c2ccc(COc3ccc4c(c3)[C@@](C)(CC(=O)O)CC4)cc2[C@@H]2CCCC2(C)C)c1` (single isomer, unassigned) [Example 19, {(R)-6-[2-((S)-2,2-Dimethyl-cyclopentyl)-2′-fluoro-5′-methoxy-biphenyl-4-ylmethoxy]-1-methyl-indan-1-yl}-acetic acid or diastereomer thereof] are 100 to 1000 nM and < 10 nM.
Turning to `COc1cc(-c2ccc(COc3ccc4c(c3)[C@@](C)(CC(=O)O)CC4)cc2[C@@H]2CCCC2(C)C)c(F)cn1` (single isomer, unassigned) [Example 20, {(R)-6-[3-((S)-2,2-Dimethyl-cyclopentyl)-4-(5-fluoro-2-methoxy-pyridin-4-yl)-benzyloxy]-1-methyl-indan-1-yl}-acetic acid or diastereomer thereof], the EC50 in assay [1] is 100 to 1000 nM; in assay [2] it was < 10 nM.
With `COc1ccc(F)c(-c2ccc(COc3ccc4c(c3)[C@@H](C(C)(C)C(=O)O)CC4)cc2[C@H]2CCCC2(C)C)c1` (single isomer, unassigned) [Example 21], the 50% effective concentration (EC50) in assay [1] lay within 100 to 1000 nM; in assay [2], 10 to 100 nM.
Regarding `COc1ccc(F)c(-c2ccc(COc3ccc4c(c3)[C@@H](CC(=O)O)CC4)cc2[C@H]2CCCC2(C)C)c1` (single isomer, unassigned) [Example 22], the EC50 in assay [1] lay within 100 to 1000 nM; in assay [2], 10 to 100 nM.
`COc1cc(-c2ccc(COc3ccc4c(c3)[C@@H](CC(=O)O)CC4)cc2[C@H]2CCCC2(C)C)c(F)cn1` (single isomer, unassigned) [Example 23]: the values for the EC50 in assay [1] and in assay [2] were 100 to 1000 nM and 10 to 100 nM, respectively.
Consider `COc1ccc(F)c(-c2ccc(COc3ccc4c(c3)[C@@H](CC(=O)O)CC4)cc2[C@@H](OC)C(C)(C)C)c1` (single isomer, unassigned) [Example 24], for which the EC50 in assay [1] lay in the range of 100 to 1000 nM; in assay [2], 10 to 100 nM.
`COc1ccc(F)c(-c2cc(F)c(COc3ccc4c(c3)[C@@](C)(CC(=O)O)CC4)cc2[C@H]2CCCC2(C)C)c1` (single isomer, unassigned) [Example 33, ((1R)-6-((2-((1S)-2,2-Dimethylcyclopentyl)-2′,5-difluoro-5′-methoxy-4-biphenylyl)methoxy)-1-methyl-2,3-dihydro-1H-inden-1-yl)acetic acid or ((1R)-6-((2-((1R)-2,2-dimethylcyclopentyl)-2′,5-difluoro-5′-methoxy-4-biphenylyl)methoxy)-1-methyl-2,3-dihydro-1H-inden-1-yl)acetic acid]: the EC50 was 10 to 100 nM in assay [1] and < 10 nM in assay [2].
In the case of `COc1cc(-c2cc(F)c(COc3ccc4c(c3)[C@@](C)(CC(=O)O)CC4)cc2[C@H]2CCCC2(C)C)c(F)cn1` (single isomer, unassigned) [Example 34, ((1R)-6-((5-((1S)-2,2-Dimethylcyclopentyl)-2-fluoro-4-(5-fluoro-2-methoxy-4-pyridinyl)benzyl)oxy)-1-methyl-2,3-dihydro-1H-inden-1-yl)acetic acid or ((1R)-6-((5-((1R)-2,2-dimethylcyclopentyl)-2-fluoro-4-(5-fluoro-2-methoxy-4-pyridinyl)benzyl)oxy)-1-methyl-2,3-dihydro-1H-inden-1-yl)acetic acid], the EC50 is 100 to 1000 nM in assay [1] and < 10 nM in assay [2].
Regarding `COc1ccc(F)c(-c2c(F)cc(COc3ccc4c(c3)[C@@](C)(CC(=O)O)CC4)cc2[C@H]2CCCC2(C)C)c1` (single isomer, unassigned) [Example 35, ((1R)-6-((2-((1S)-2,2-Dimethylcyclopentyl)-2′,6-difluoro-5′-methoxy-4-biphenylyl)methoxy)-1-methyl-2,3-dihydro-1H-inden-1-yl)acetic acid or ((1R)-6-((2-((1R)-2,2-dimethylcyclopentyl)-2′,6-difluoro-5′-methoxy-4-biphenylyl)methoxy)-1-methyl-2,3-dihydro-1H-inden-1-yl)acetic acid], the results for the EC50 in assay [1] and in assay [2] were 100 to 1000 nM and < 10 nM, respectively.
In the same order, the values of `COc1ccc(F)c(-c2ccc(COc3ccc4c(c3)[C@@](C)(CC(=O)O)CC4)cc2[C@@H](OC)C(C)(C)C)c1` (single isomer, unassigned) [Example 36, ((1R)-6-((2′-Fluoro-5′-methoxy-2-((1S)-1-methoxy-2,2-dimethylpropyl)-4-biphenylyl)methoxy)-1-methyl-2,3-dihydro-1H-inden-1-yl)acetic acid or ((1R)-6-((2′-fluoro-5′-methoxy-2-((1R)-1-methoxy-2,2-dimethylpropyl)-4-biphenylyl)methoxy)-1-methyl-2,3-dihydro-1H-inden-1-yl)acetic acid] are 100 to 1000 nM and < 10 nM.
With `COc1cc(-c2ccc(COc3ccc4c(c3)[C@@](C)(CC(=O)O)CC4)cc2[C@@H](OC)C(C)(C)C)c(F)cn1` (single isomer, unassigned) [Example 37, 2-((1R)-6-(4-(5-Fluoro-2-methoxypyridin-4-yl)-3-((S)-1-methoxy-2,2-dimethylpropyl)benzyloxy)-1-methyl-2,3-dihydro-1H-inden-1-yl)acetic acid or 2-((1R)-6-(4-(5-fluoro-2-methoxypyridin-4-yl)-3-(R)-1-methoxy-2,2-dimethylpropyl)benzyloxy)-1-methyl-2,3-dihydro-1H-inden-1-yl)acetic acid], the EC50 in assay [1] is 100 to 1000 nM; in assay [2], < 10 nM.
Regarding `COc1cc(-c2ccc(COc3ccc4c(c3F)[C@@](C)(CC(=O)O)CC4)cc2[C@H]2CCCC2(C)C)c(F)cn1` (single isomer, unassigned) [Example 38, {(R)-6-[3-((S)-2,2-Dimethyl-cyclopentyl)-4-(5-fluoro-2-methoxy-pyridin-4-yl)-benzyloxy]-7-fluoro-1-methyl-indan-1-yl}-acetic acid or stereoisomer thereof], the values for the half-maximal effective concentration (EC50) in assay [1] and in assay [2] were 100 to 1000 nM and 10 to 100 nM, respectively.
On to `COc1cc(-c2ccc(COc3ccc4c(c3F)[C@@](C)(CC(=O)O)CC4)cc2[C@@H](OC)C(C)(C)C)c(F)cn1` (single isomer, unassigned) [Example 39, {(R)-7-Fluoro-6-[4-(5-fluoro-2-methoxy-pyridin-4-yl)-3-((S)-1-methoxy-2,2-dimethyl-propyl)-benzyloxy]-1-methyl-indan-1-yl}-acetic acid or stereoisomer thereof], for which the EC50 in assay [1] was in the range of 100 to 1000 nM; in assay [2], 10 to 100 nM.
Take `CC[C@]1(CC(=O)O)CCc2ccc(OCc3ccc(-c4cc(OC)ccc4F)c([C@H]4CCCC4(C)C)c3)cc21` (single isomer, unassigned) [Example 42]: the EC50 in assay [1] lay in the range of 100 to 1000 nM; in assay [2], 10 to 100 nM.
